The record followed here is the supplement of paper PMC11208160.

The nature of this data set: recombinant UMI read abundance after kanamycin selection (control-corrected) (log10(CPM+1)); higher = more efficient recombination; extreme values may be limits of the assay; sequences stand for … in AGTGCAGAGAAAATCGGCCAGTTTTCTCTGCCTGCAGTCCGCATGCCGTGGGACCCCTTGGGTTCTAACCTGTTGCCTAGATTTATGCAGCGGACTGCCTTTCTCCCAAAGTGATAAACCGG…AGGTTGGTTTCACT; site = the 11-nt donor. An outline of the steps:
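The measure is log10(CPM+1) for recombinant UMIs. These were PCR-amplified across the donor–target junction and sequenced after Escherichia coli carrying a donor and donor-binding-loop pair library and a target plasmid with T7-inducible IS621 bridge recombinase was plated on IPTG (0.07 mM) plus kanamycin or unselected. CPM were averaged over two replicates and scaled by control-derived factors.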
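Also: IS621 bridge recombinase in Escherichia coli cells against a fixed T5 target plasmid.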

On to “ACCTCTACATGGACCGGTTTTCCCGGTAATCCGTATTTGTG (site ACGTCTACTCA)”, for which the “recombinant UMI read abundance (log10)” value stood at 0.0131.
As for “ACCTCTACATGGACCGGTTTTCCCGGTAATCCGTATTTGTG (site ACTTCTACTCA)”, the figure is 0.0231; as for “ACCTGGACATGGACCGGTTTTCCCGGTAATCCGTATTTGGG (site ACCTAGACTCC)”, 0.00306; as for “ACCTGGACATGGACCGGTTTTCCCGGTAATCCGTATTTGGG (site ACCTCGACTCC)”, 0.00694.
With “ACCTGGACATGGACCGGTTTTCCCGGTAATCCGTATTTGGG (site ACCTGGACTCC)” the figure was 0.0305; with “ACCTGGACATGGACCGGTTTTCCCGGTAATCCGTATTTGGG (site ACCTTGACTCC)”, 0.0114.
“ACCTTCGCATGGACCGGTTTTCCCGGTAATCCGTATTTGGC (site ACCTTCGCTGC)”: the “recombinant UMI read abundance (log10)” value amounted to 1.56.
With “ACCTTTCCATGGACCGGTTTTCCCGGTAATCCGTATTTGCT (site ACCTTTCCTAG)” the figure was 0; with “ACGAAAACATGGACCGGTTTTCCCGGTAATCCGTATTTGTT (site ACGAAAACTAA)”, 1.37; with “ACGAAACCATGGACCGGTTTTCCCGGTAATCCGTATTTGGA (site ACGAAACCTTC)”, 0.
With “ACGAAGGCATGGACCGGTTTTCCCGGTAATCCGTATTTGAC (site ACGAAGGCTGT)” the figure was 2.46.
Regarding “ACGAAGTCATGGACCGGTTTTCCCGGTAATCCGTATTTGCA (site ACGAAGTCTTG)”, the “recombinant UMI read abundance (log10)” value was 3.09.
As to “ACGAAGTCATGGACCGGTTTTCCCGGTAATCCGTATTTGCA (site AGGAAGACTTG)”, the “recombinant UMI read abundance (log10)” value was found to be 0.
Turning to “ACGACGGCATGGACCGGTTTTCCCGGTAATCCGTATTTGAA (site ACGACGGCTTT)”, the “recombinant UMI read abundance (log10)” value was found to be 1.59.
With “ACGAGGTCATGGACCGGTTTTCCCGGTAATCCGTATTTGAC (site ACGAGGTCTGT)” the figure was 2.91; with “ACGCAACCATGGACCGGTTTTCCCGGTAATCCGTATTTGCT (site ACGCAACCTAG)”, 0.
With “ACGCCGTCATGGACCGGTTTTCCCGGTAATCCGTATTTGGT (site ACGCCGTCTAC)” the figure was 1.61; with “ACGCGAACATGGACCGGTTTTCCCGGTAATCCGTATTTGTC (site ACACGAACTGA)”, 2.62.
As for “ACGCGAACATGGACCGGTTTTCCCGGTAATCCGTATTTGTC (site ACCCGAACTGA)”, the figure is 0.
In the case of “ACGCGAACATGGACCGGTTTTCCCGGTAATCCGTATTTGTC (site ACGCGAACTGA)”, the “recombinant UMI read abundance (log10)” value was found to be 2.38.
With “ACGCGAACATGGACCGGTTTTCCCGGTAATCCGTATTTGTC (site ACTCGAACTGA)” the figure was 0; with “ACGCGTACATGGACCGGTTTTCCCGGTAATCCGTATTTGGA (site ACGCGTACTTC)”, 1.12.
With “ACGGAGACATGGACCGGTTTTCCCGGTAATCCGTATTTGCA (site ACGGAGACTTG)” the figure was 2.64; with “ACGGAGACATGGACCGGTTTTCCCGGTAATCCGTATTTGCA (site AGGAAGACTTG)”, 0; with “ACGGCCTCATGGACCGGTTTTCCCGGTAATCCGTATTTGGT (site ACGGCCTCTAC)”, 2.1.
As to “ACGGCGTCATGGACCGGTTTTCCCGGTAATCCGTATTTGTC (site ACGGCGTCTGA)”, the “recombinant UMI read abundance (log10)” value is 3.22.
As for “ACGGGGCCATGGACCGGTTTTCCCGGTAATCCGTATTTGCA (site ACGGGGCCTTG)”, the figure is 0.
“ACGGTGCCATGGACCGGTTTTCCCGGTAATCCGTATTTGAA (site ACGGTGCCTTT)”: the “recombinant UMI read abundance (log10)” value was found to be 0.00366.
With “ACGTACACATGGACCGGTTTTCCCGGTAATCCGTATTTGCA (site ACGTACACTTG)” the figure was 2.71.
With “ACGTCATCATGGACCGGTTTTCCCGGTAATCCGTATTTGTT (site ACGTCATCTAA)” the figure was 1.69.
“ACGTCGACATGGACCGGTTTTCCCGGTAATCCGTATTTGTT (site ACGTCGACTAA)”: the “recombinant UMI read abundance (log10)” value stood at 0.654.
With “ACGTGAGCATGGACCGGTTTTCCCGGTAATCCGTATTTGCC (site ACGTGAGCTGG)” the figure was 2.7.
With “ACGTGGACATGGACCGGTTTTCCCGGTAATCCGTATTTGTG (site ACGTGGACTCA)” the figure was 1.53; with “ACGTTAGCATGGACCGGTTTTCCCGGTAATCCGTATTTGAT (site ACGTTAGCTAT)”, 2.62; with “ACTAAACCATGGACCGGTTTTCCCGGTAATCCGTATTTGCG (site ACTAAACCTCG)”, 0.
As for “ACTAAATCATGGACCGGTTTTCCCGGTAATCCGTATTTGGC (site ACTAAATCTGC)”, the “recombinant UMI read abundance (log10)” value was determined as 0.218.
“ACTAATACATGGACCGGTTTTCCCGGTAATCCGTATTTGGC (site ACTAATACTGC)”: the “recombinant UMI read abundance (log10)” value is 0.399.
With “ACTAATACATGGACCGGTTTTCCCGGTAATCCGTATTTGGC (site CCTAATACTGC)”, the “recombinant UMI read abundance (log10)” value was found to be 0.
With “ACTAATACATGGACCGGTTTTCCCGGTAATCCGTATTTGGC (site GCTAATACTGC)”, the “recombinant UMI read abundance (log10)” value is 1.02.
As for “ACTAATACATGGACCGGTTTTCCCGGTAATCCGTATTTGGC (site TCTAATACTGC)”, the figure is 1.03; as for “ACTACAACATGGACCGGTTTTCCCGGTAATCCGTATTTGTG (site ACTACAACTCA)”, 0.339.
“ACTACTGCATGGACCGGTTTTCCCGGTAATCCGTATTTGGT (site ACTAATGCTAC)”: the “recombinant UMI read abundance (log10)” value worked out at 0.0144.
With “ACTACTGCATGGACCGGTTTTCCCGGTAATCCGTATTTGGT (site ACTACTGCTAC)” the figure was 0.247.
As for “ACTACTGCATGGACCGGTTTTCCCGGTAATCCGTATTTGGT (site ACTAGTGCTAC)”, the figure is 0.0166; as for “ACTACTGCATGGACCGGTTTTCCCGGTAATCCGTATTTGGT (site ACTATTGCTAC)”, 0.00304; as for “ACTAGCACATGGACCGGTTTTCCCGGTAATCCGTATTTGAG (site ACTAGAACTCT)”, 0.495.
As for “ACTAGCACATGGACCGGTTTTCCCGGTAATCCGTATTTGAG (site ACTAGCACTCT)”, the figure is 1.48; as for “ACTAGCACATGGACCGGTTTTCCCGGTAATCCGTATTTGAG (site ACTAGGACTCT)”, 0.0266; as for “ACTAGCACATGGACCGGTTTTCCCGGTAATCCGTATTTGAG (site ACTAGTACTCT)”, 0.517.
Take “ACTAGCTCATGGACCGGTTTTCCCGGTAATCCGTATTTGTT (site ACTAGCTCTAA)”: the “recombinant UMI read abundance (log10)” value is 0.346.
With “ACTAGGACATGGACCGGTTTTCCCGGTAATCCGTATTTGCT (site ACTAGGACTAG)” the figure was 2.36; with “ACTAGGGCATGGACCGGTTTTCCCGGTAATCCGTATTTGAG (site ACTAGGGCTCT)”, 1.52.
For “ACTAGTGCATGGACCGGTTTTCCCGGTAATCCGTATTTGAT (site ACTAGTGCTAA)”, the “recombinant UMI read abundance (log10)” value came out at 0.0209.
With “ACTAGTGCATGGACCGGTTTTCCCGGTAATCCGTATTTGAT (site ACTAGTGCTAC)” the figure was 0.0203; with “ACTAGTGCATGGACCGGTTTTCCCGGTAATCCGTATTTGAT (site ACTAGTGCTAG)”, 0.00388; with “ACTAGTGCATGGACCGGTTTTCCCGGTAATCCGTATTTGAT (site ACTAGTGCTAT)”, 2.1.
In the case of “ACTAGTGCATGGACCGGTTTTCCCGGTAATCCGTATTTGCT (site ACTAGTGCTAA)”, the “recombinant UMI read abundance (log10)” value is 0.335.
With “ACTAGTGCATGGACCGGTTTTCCCGGTAATCCGTATTTGCT (site ACTAGTGCTAC)” the figure was 0.00908.
“ACTAGTGCATGGACCGGTTTTCCCGGTAATCCGTATTTGCT (site ACTAGTGCTAG)”: the “recombinant UMI read abundance (log10)” value was 1.37.
In the case of “ACTAGTGCATGGACCGGTTTTCCCGGTAATCCGTATTTGCT (site ACTAGTGCTAT)”, the “recombinant UMI read abundance (log10)” value amounted to 0.0101.
With “ACTATTCCATGGACCGGTTTTCCCGGTAATCCGTATTTGGT (site ACTATTCCTAC)” the figure was 0.00382; with “ACTCAACCATGGACCGGTTTTCCCGGTAATCCGTATTTGGT (site ACTCAACCTAC)”, 0.00884; with “ACTCCGCCATGGACCGGTTTTCCCGGTAATCCGTATTTGTG (site ACTCCGCCTCA)”, 0.0108.
As to “ACTCCGTCATGGACCGGTTTTCCCGGTAATCCGTATTTGAT (site ACTCCGTCTAT)”, the “recombinant UMI read abundance (log10)” value stood at 0.697.
For “ACTCGCACATGGACCGGTTTTCCCGGTAATCCGTATTTGAC (site ACTCGCACTGT)”, the “recombinant UMI read abundance (log10)” value worked out at 2.68.
As for “ACTCGGTCATGGACCGGTTTTCCCGGTAATCCGTATTTGTT (site ACTCGGTCTAA)”, the figure is 0.936; as for “ACTCGTGCATGGACCGGTTTTCCCGGTAATCCGTATTTGAC (site ACTCGTGCTGT)”, 2.56; as for “ACTCGTGCATGGACCGGTTTTCCCGGTAATCCGTATTTGAG (site ACTCGTGCTCT)”, 1.4.
